Source: patent publication US20080161245A1, “Protein-Binding Anthracycline Peptide Derivatives and Drugs Containing Them” (KTB Tumorforschungsgesellschaft mbH, priority 2005, published 2008)
*: point of attachment. Hexanoyl(6-maleimido) = O=C1C=CC(=O)N1CCCCCC(=O)*

Experiments:
CWR22 tissue homogenate = assay: Cleavage study of the doxorubicin dipeptide with CWR22 tissue homogenate (HPLC); format: in vitro ADME; settings: pH 7.4, 37° C., anthracycline 100 μM, 5 minutes, 6 hours, 20 hours, FIG. 2
Protocol: FIG. 2 is chromatogram of a cleavage study of the doxorubicin-dipeptide Doxo-Arg-Ser with PSA-positive prostate carcinoma CWR22. Chromatogram of an incubation study of the cleaved doxorubicin-dipeptide [Doxo-Arg-Ser] with CWR22 homogenate recorded at 37° C. after 0 hours, 6 hours, and 20 hours. The concentration of anthracycline was […]. HPLC conditions: see FIG. 1. The CWR22 homogenate (250 mg/l mL) was produced by homogenization of CWR22 xenograft tumors in 50 mM tris-HCl buffer at pH 7.4 containing 1 mM monothioglycerol.
An incubation study at 37° C. with CWR22 tissue homogenate at pH 7.4 was conducted with the doxorubicin dipeptide (Doxo-Arg-Ser) obtained as described in Example 2. The concentration of anthracycline was 100 μM. HPLC chromatography was conducted under the conditions of Example 2 after 5 minutes, 6 hours, and 20 hours.

[1] = target: T1, cysteine-34 position of endogenous albumin (Homo sapiens, UniProt P02768); assay: Incubation study with human plasma (binding to albumin, HPLC); settings: 37° C., 100 μM, after 5 and 90 minutes, FIG. 4
T1 construct: cysteine-34 position of endogenous albumin in blood plasma; from tissue; host or cells: human blood plasma
Protocol: FIG. 4 is chromatogram of an incubation study of compound 3 with human plasma at 37° C. after 5 and 90 minutes. Chromatogram of an incubation study of compound 3 with human plasma at 37° C. after 5 and 90 minutes. The concentration of the anthracycline was 100 μM. HPLC chromatography conditions: see FIG. 3.

[2] = tested on: PSA-positive xenograft model CWR22; assay: In-vivo activity in the PSA-positive xenograft model (CWR22); design: species or system hairless mice
Protocol: The course of the tumor growth of the subcutaneously growing PSA-positive xenograft model CWR22, which was treated with structure 3 [dose (i.v.): 2×13.3 μmol/kg (=2×8 mg/kg doxorubicin equivalents) on days 13 and 20; 3×39.9 μmol/kg (=3×24 mg/kg doxorubicin equivalents) on days 13, 20, and 27; and 3×59.9 μmol/kg (=3×36 mg/kg doxorubicin equivalents) on days 13, 20, and 27] is shown in FIG. 6.
Animals: hairless mice. Stock solution of compound 3:6.0 mg/mL in 10 mM sodium phosphate, 5% D-glucose (pH 6.4); control (buffer): glucose-phosphate buffer (10 mM sodium phosphate, 5% D-glucose—pH 6.4) on days 13 and 20.
The course of the tumor growth of the subcutaneously growing PSA-positive xenograft model CWR22, which was treated with structure 1 [dose (i.v.): 2×13.3 μmol/kg (=2×8 mg/kg doxorubicin equivalents) on days 13 and 20; 3×26.3 μmol/kg (=3×16 mg/kg doxorubicin equivalents) or with buffer (control) on days 13 and 20], is shown in FIG. 7.
Animals: hairless mice. Stock solution of compound 1:7.4 mg/mL in 10 mM sodium phosphate, 5% D-glucose (pH 6.4); control (buffer): glucose-phosphate buffer (10 mM sodium phosphate, 5% D-glucose—pH 6.4) on days 13 and 20.

Row | Substance | cleavage in tumor tissue homogenate (CWR22 tissue homogenate) | binding to albumin in blood plasma [1] | antitumoral effect (relative tumor volume) ([2]; i.v. 2×13.3 μmol/kg on days 13 and 20, 3×26.3 μmol/kg, subcutaneous CWR22, FIG. 7) | antitumoral effect (relative tumor volume) ([2]; i.v. 2×13.3, 3×39.9 and 3×59.9 μmol/kg on days 13, 20 (27), subcutaneous CWR22, FIG. 6)
1 | Doxo-Arg-Ser | cleaved to doxorubicin in tumor tissue |  |  | 
2 | EMC-Arg-Arg-Ser-Ser-Tyr-Tyr-Ser-Gly-Doxo ({Hexanoyl(6-maleimido)}-RRSSYYSG-doxorubicin) [compound 3] |  | binds selectively within a few minutes | good antitumoral effect | good antitumoral effect
